Measured values published in the NIST ThermoML archive (doi:10.1021/je034096z).
± gives the expanded uncertainty stated by the source.

Conditions: Liquid

COCC(C)O (stereo not given) [1-methoxy-2-propanol]
Conditions	vapor or sublimation pressure [kPa]
347.62 K	19.25 ± 0.038
352.64 K	23.74 ± 0.04
353.15 K	24.25 ± 0.39
357.89 K	29.35 ± 0.042
362.93 K	35.72 ± 0.045
363.15 K	36.03 ± 0.42
368.03 K	43.29 ± 0.048
373.15 K	52.16 ± 0.47
373.22 K	52.3 ± 0.052
378.01 K	61.89 ± 0.055

CCCCCCOCCOCCO [2-(2-hexyloxyethoxy)ethanol]
Conditions	vapor or sublimation pressure [kPa]
402.96 K	1.111 ± 0.041
403.01 K	1.117 ± 0.041
403.15 K	1.124 ± 0.63
408.02 K	1.435 ± 0.041
413.15 K	1.831 ± 0.63
413.2 K	1.835 ± 0.041
418.17 K	2.293 ± 0.041
422.87 K	2.825 ± 0.041
423.15 K	2.858 ± 0.041

CN1CCCC1=O [N-methylpyrrolidone]
Conditions	vapor or sublimation pressure [kPa]
352.27 K	1.285 ± 0.031
352.48 K	1.297 ± 0.031
353.15 K	1.344 ± 0.31
359.26 K	1.823 ± 0.032
363.15 K	2.193 ± 0.32
363.36 K	2.217 ± 0.032
368.27 K	2.777 ± 0.032
373.09 K	3.444 ± 0.032
373.15 K	3.456 ± 0.32
377.86 K	4.229 ± 0.032

CC(O)CO (stereo not given) [1,2-propanediol]
Conditions	vapor or sublimation pressure [kPa]
393.22 K	8.198 ± 0.067
393.25 K	8.207 ± 0.067
398.09 K	10.23 ± 0.068
403.14 K	12.77 ± 0.07
403.15 K	12.77 ± 0.7
408.3 K	15.89 ± 0.072
413.1 K	19.36 ± 0.074
413.15 K	19.39 ± 0.74
418.16 K	23.68 ± 0.077
423.15 K	28.69 ± 0.8
423.26 K	28.81 ± 0.081
